Broadly, the melting point is the temperature of the solid-liquid transition.

This note sets out measurements from patent US11440888B2, “Microbiocidal quinoline carboxamide derivatives” (SYNGENTA CROP PROTECTION AG, priority 2018, dated 2022).

In turn, `Cc1c(NC(=O)C(Cl)(Cc2ccccc2)CC(F)(F)F)cnc2c(F)cccc12` (stereo not drawn) [E.01, 2-benzyl-2-chloro-4,4,4-trifluoro-N-(8-fluoro-4-methyl-3-quinolyl)butanamide] had a melting point of 179 to 181 °C.
Molecule `Cc1c(NC(=O)C(Cl)(Cc2ccccc2)CC(C)C)cnc2c(F)cccc12` (stereo not drawn) [E.05, 2-benzyl-2-chloro-N-(8-fluoro-4-methyl-3-quinolyl)-4-methyl-pentanamide] gave a melting point of 140 to 141 °C.
The figure for `O=C(Nc1cnc2c(F)cccc2c1)C(Cl)(Cc1ccccc1)CC(F)(F)F` (stereo not drawn) [E.06, 2-benzyl-2-chloro-4,4,4-trifluoro-N-(8-fluoro-3-quinolyl)butanamide] is 106 to 108 °C.
